According to patent publication US8658183B2, “Antimicrobial parenteral formulation” (Taigen Biotechnology Company, Ltd., priority 2007, dated 2014):
In brackets after ≈: the same amount, converted by molar mass.

What was measured:
[1] = Effect of pH on Compound 1 saline formulation; assay type: physicochemical
Description: 2000 mL solution of Compound 1 in 0.9% saline was prepared in the same manner as described above. The solution was equally divided into 6 portions. The pH values for the 6 portions were adjusted to 2.43, 3.00, 3.76, 4.51, 6.01 and 7.13 by adding dilute hydrochloric acid or sodium hydroxide. The appearance and content of solutions were analyzed and shown below.

[2] = Effect of iron content on Compound 1 saline formulation; assay type: physicochemical; details: 5 mg/mL in 0.9% saline, filtered, sterilized
Description: The solution was equally divided into 2 portions. To one portion was added 0.25 g activated charcoal and to the other was added 0.25 g activated charcoal and 0.1 g of iron powder. Each of the resulting mixture was stirred and filtered to a 100-mL polypropylene bottle.

[3] = Effect of temperature and time during sterilization on Compound 1 saline formulation; assay type: physicochemical; details: 0.9% saline
Description: To the solution was added 1.5 g of activated charcoal (0.05% g/mL). The mixture was stirred for 15 min and filtered. The filtrate was added to a serious of 100-mL polypropylene bottles. The filled bottles were capped, sealed, and divided into four groups (7 bottles/group).

[4] = Effect of lower temperature (−15° C.) on Compound 1 saline formulation; assay type: physicochemical; details: 5 mg/mL in 0.9% saline
[5] = Long-term and accelerated storage stability of Compound 1 saline formulation; assay type: physicochemical; details: 5 mg/mL (free base) in 0.9% saline
Description: At each sampling point (marked as “X” in the above table), samples were evaluated for their appearance, color, clarity, pH, UV absorption, assay and impurity.

Bacteroides species = assay: In vitro antibacterial activity, agar dilution; assay type: cell-based; details: anaerobic pathogens, clinical isolates
Description: (§1) Various bacterial species, such as Gram positive bacteria (e.g., Clostridium, Staphylococcus and Streptococcus), Gram negative bacteria (e.g., Moraxella, Haemophilus, Pseudomonas, Proteus, and Bacteriodes), anaerobic and atypical pathogens, were isolated from clinical samples. The antibacterial activity of Compound of Formula I against these bacterial species were determined using agar dilution assays described in the U.S. National Committee for Clinical Laboratory, M7-A6, 2003, and M11-A5, 2001.

Clostridium difficile = assay: In vitro antibacterial activity, agar dilution; assay type: cell-based; details: anaerobic pathogen, clinical isolates
Description: as §1

E. coli = assay: In vitro antibacterial activity, agar dilution; assay type: cell-based; details: clinical isolates
Description: as §1

[6] = tested on: Gram positive, Gram negative, anaerobic, and atypical pathogens; assay: In vitro antibacterial activity, agar dilution; assay type: cell-based; details: clinical isolates
Description: as §1

Haemophilus influenzae = assay: In vitro antibacterial activity, agar dilution; assay type: cell-based; details: clinical isolates
Description: as §1

Klebsiella pneumoniae = assay: In vitro antibacterial activity, agar dilution; assay type: cell-based; details: clinical isolates
Description: as §1

Moraxella catarrhalis = assay: In vitro antibacterial activity, agar dilution; assay type: cell-based; details: clinical isolates
Description: as §1

Neisseria gonorrhoeae = assay: In vitro antibacterial activity, agar dilution; assay type: cell-based; details: clinical isolates
Description: as §1

Proteus mirabilis = assay: In vitro antibacterial activity, agar dilution; assay type: cell-based; details: clinical isolates
Description: as §1

Pseudomonas aeruginosa = assay: In vitro antibacterial activity, agar dilution; assay type: cell-based; details: clinical isolates
Description: as §1

S. pneumoniae = assay: In vitro antibacterial activity, agar dilution; assay type: cell-based
Description: as §1

enteric organisms = assay: In vitro antibacterial activity, agar dilution; assay type: cell-based; details: clinical isolates
Description: as §1

[7] = tested on: methicillin-susceptible S. aureus (MSSA); assay: In vitro antibacterial activity, agar dilution; assay type: cell-based
Description: as §1

[8] = 5 mg/mL in 0.9% saline, pH 3.00
[9] = 5 mg/mL in 0.9% saline, pH 3.76 (no acid/base added)
[10] = 5 mg/mL in 0.9% saline, pH 6.01
[11] = activated charcoal and iron powder added
[12] = activated charcoal, no iron powder
[13] = sterile temperature N/A (control group)

## COc1c(N2C[C@@H](C)C[C@H](N)C2)ccc2c(=O)c(C(=O)O)cn(C3CC3)c12 [Compound 1, (3S,5S)-7-[3-amino-5-methyl-piperidinyl]-1-cyclopropyl-1,4-dihydro-8-methoxy-4-oxo-3-quinolinecarboxylic acid]
[1]; 5 mg/mL in 0.9% saline, no acid/base added
  pH Value: 3.76
[1]; [8]
  Appearance: clear yellow solution
  Comparative content of Compound 1 (%): 94.87%
[1]; [9]
  Appearance: clear yellow solution
  Comparative content of Compound 1 (%): 103.62%
[1]; [10]
  Appearance: clear yellow solution
  Comparative content of Compound 1 (%): 99.63%
[1]; 5 mg/mL in a saline solution
  pH at which Compound 1 precipitated: 6.6
[2]; [11]
  Appearance: Reddish Brown
  pH: 3.77
[2]; [12]
  Appearance: Light yellow
  pH: 3.78
[3]; [13]
  Content (%): 95.20%
  Total Impurity (%): 0.167%
  pH Value: 3.86
[3]; sterilization 105° C./35 min
  Content (%): 96.44%
  Total Impurity (%): 0.198%
  pH Value: 3.86
[3]; sterilization 110° C./35 min
  Content (%): 95.86%
  Total Impurity (%): 0.240%
  pH Value: 3.86
[3]; sterilization 115° C./35 min
  Content (%): 95.98%
  Total Impurity (%): 0.509%
  pH Value: 3.85
[4]; 0 day at −15° C.
  Appearance: Clear yellow
  Content: 102.6
  Total Impurity (%): 0.378%
  pH Value: 3.90
[4]; 5 days at −15° C.
  Appearance: Clear yellow
  Content: 102.8
  Total Impurity (%): 0.370%
  pH Value: 3.89
[4]; 10 days at −15° C.
  Appearance: Clear yellow
  Content: 103.5
  Total Impurity (%): 0.373%
  pH Value: 3.89
[4]; −15° C. for 10 days
  Appearance, compound content, pH and total impurity (summary in words): maintained the same
[5]; 25° C., 60% RH, 12 months
  Changes in appearance, color, clarity, pH, UV absorption, assay and impurity: No significant changes
[5]; 40° C., 20% RH, 6 months
  Changes in appearance, color, clarity, pH, UV absorption, assay and impurity: No significant changes
Bacteroides species
  antibacterial activity (in words): active
Clostridium difficile
  antibacterial activity (in words): active
E. coli
  MIC90: 0.12 µg/mL (≈ 0.323 µM)
[6]
  antibacterial activity (in words): potent, broad-spectrum antibacterial activity
Haemophilus influenzae
  MIC90: 0.12 µg/mL (≈ 0.323 µM)
Klebsiella pneumoniae
  MIC90: 1 µg/mL (≈ 2.69 µM)
Moraxella catarrhalis
  MIC90: 0.03 µg/mL (≈ 0.0808 µM)
Neisseria gonorrhoeae
  MIC90: 0.06 µg/mL (≈ 0.162 µM)
Proteus mirabilis
  MIC90: 0.5 µg/mL (≈ 1.35 µM)
Pseudomonas aeruginosa
  antibacterial activity (in words): active against many isolates
S. pneumoniae; macrolide-resistant S. pneumoniae isolates
  MIC90: 0.12 µg/mL (≈ 0.323 µM)
S. pneumoniae; penicillin-resistant S. pneumoniae isolates
  MIC90: 0.12 µg/mL (≈ 0.323 µM)
S. pneumoniae; susceptible S. pneumoniae isolates
  MIC90: 0.12 µg/mL (≈ 0.323 µM)
Enteric organisms
  antibacterial activity (in words): active against most enteric organisms
[7]; ciprofloxacin-resistant MSSA clinical isolates
  MIC90: 0.5 µg/mL (≈ 1.35 µM)
[7]; ciprofloxacin-sensitive MSSA clinical isolates
  MIC90: 0.06 µg/mL (≈ 0.162 µM)
